The values below come from patent US9309222B2, “Phenyl linked quinolinyl modulators of RORγt” (Janssen Pharmaceutica NV, priority 2012, dated 2016).

Assay [1] addresses T1, human RORγt ligand binding domain (RORγt LBD) (Homo sapiens, UniProt P51449).
T1 construct: His-tag (N); TurboTEV protease cleavage site (ENLYFQG) (N); made in house; host or cells: E. coli (pHIS1, modified pET vector)
T1 sequence (P51449 with tags, fused parts or gaps): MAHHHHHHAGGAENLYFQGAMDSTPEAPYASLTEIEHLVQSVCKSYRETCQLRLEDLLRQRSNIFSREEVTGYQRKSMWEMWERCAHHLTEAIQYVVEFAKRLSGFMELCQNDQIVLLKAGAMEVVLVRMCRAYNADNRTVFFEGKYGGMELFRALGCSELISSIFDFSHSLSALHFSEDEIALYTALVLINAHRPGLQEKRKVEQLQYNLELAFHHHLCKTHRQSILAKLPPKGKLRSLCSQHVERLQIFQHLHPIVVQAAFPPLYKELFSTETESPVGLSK
Briefly: RORγt ThermoFluor assay (thermal shift, ligand binding affinity). To be noted: estimated from concentration response of thermal shift. The gist of the method:
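Thermal shift of 0.065 mg/mL RORγt with 60 μM 1,8-ANS in 100 mM Hepes pH 7.0, 10 mM NaCl, 2.5 mM GSH, 0.002% Tween-20. Compounds in 1:2 series from 10 mM DMSO stock. Dye fluorescence (500 nm emission) tracked versus temperature; ΔTm used to derive KD.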

In assay [2] the test system is IL-17 production by CD4 T cells. As to the kind of experiment: Human Th17 assay (IL-17 production by CD4 T cells under Th17 differentiation conditions). Type of assay: cell-based. To be noted: IL-17 in supernatant after 3 days. On the procedure: The human Th17 assay tests the effect of RORγt modulatory compounds on IL-17 production by CD4 T cells under conditions which favor Th17 differentiation. Total CD4^+ T cells were isolated from the peripheral blood mononuclear cells (PBMC) of healthy donors using a CD4^+ T cell isolation kit II, following the manufacturer's instructions (Miltenyi Biotec). […] 50 μL of compound at titrated concentrations in DMSO were added into each well at final DMSO concentration at 0.2%. Cells were incubated for 1 hour, then 50 μL of Th17 cell differentiation medium was added to each well. The final concentrations of antibodies and cytokines (R&D Systems) in differentiation medium were: 3×10^6/mL anti-CD3/CD28 beads (prepared using human T cell activation/expansion kit, Miltenyi Biotec), 10 μg/mL anti-IL4, 10 μg/mL anti-IFNγ, 10 ng/mL IL113, 10 ng/mL IL23, 50 ng/mL IL6, 3 ng/mL TGFβ and 20 U/mL IL2. Cells were cultured at 37° C. and 5% CO2 for 3 days. Supernatants were collected and the accumulated IL-17 in culture was measured by using MULTI-SPOT® Cytokine Plate following manufacture's instruction (Meso Scale Discovery). The plate was read using Sector Imager 6000, and IL-17 concentration was extrapolated from the standard curve. The IC50s were determined by GraphPad.

The target of a further assay is T2, human RORγt LBD (Homo sapiens, UniProt P51449).
T2 construct: expressed in transfected cells
T2 sequence (P51449 258-518): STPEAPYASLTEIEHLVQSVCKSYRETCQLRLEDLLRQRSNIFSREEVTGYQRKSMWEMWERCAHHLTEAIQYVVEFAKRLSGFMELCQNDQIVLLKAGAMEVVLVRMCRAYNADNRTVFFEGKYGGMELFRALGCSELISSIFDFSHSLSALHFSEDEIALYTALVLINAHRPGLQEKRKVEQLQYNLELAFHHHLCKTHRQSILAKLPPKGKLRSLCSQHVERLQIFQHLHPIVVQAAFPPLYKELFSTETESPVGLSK
As to the kind of experiment: RORγt reporter assay (GAL4-RORγt LBD luciferase in HEK293T cells). Type of assay: cell-based. The note with it: for RORγt reporter Assay, % inhibition @ 6 μM / IC50: HEK293T cells; for RORγt reporter Assay, % inhibition @ 6 μM: 6 μM compound; for IC50: 24 hours compound treatment; for inhibition at 6 µM: HEK-293T, read-out: RORγt reporter Assay, % inhibition @ 6 μM, HEK293T cells, 6 μM compound. The gist of the method: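 HEK293T cells transiently co-transfected with pBIND (GAL4 DBD fused to wild-type human RORγt LBD, plus SV40-driven renilla luciferase) and pGL4.31 GAL4-responsive firefly luciferase reporter. Plated in phenol-red-free DMEM with 5% lipid-reduced FCS and treated with compound for 24 h. Firefly/renilla luminescence ratio plotted against compound concentration.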

“And” between values parts separate entries of the source, which are not always exact repeats. Equal entries are not always repeated. Structures can show the parent of a compound that is named as a salt.

Take `COc1nc2c(C)cc(C(O)(c3ccc(C(F)(F)F)nc3)c3cncn3C)cc2c(Cl)c1-c1ccc(OC(F)(F)F)cc1` (single isomer, unassigned) [Example 183b, (4-Chloro-2-methoxy-8-methyl-3-(4-(trifluoromethoxy)phenyl)quinolin-6-yl)(1-methyl-1H-imidazol-5-yl)(6-(trifluoromethyl)pyridin-3-yl)methanol]: in assay [1], the Kd (as a rule, a measure of binding affinity in units of concentration) was 3.7 nM. In addition, the IC50 (commonly the concentration that inhibits the measured activity by half) in assay [2] (Homo sapiens, CD4+ T, 72 h) was 1200 nM; on human RORγt LBD, over 6000 nM. Also, the “RORγt reporter Assay, % inhibition @ 6 μM” value at human RORγt LBD worked out at 34%.

Turning to `COc1nc2c(C)cc(C(O)(c3ccc(C(F)(F)F)nc3)c3cncn3C)cc2c(Cl)c1-c1ccc(OC(F)(F)F)cc1` (single isomer, unassigned) [Example 183c, (4-Chloro-2-methoxy-8-methyl-3-(4-(trifluoromethoxy)phenyl)quinolin-6-yl)(1-methyl-1H-imidazol-5-yl)(6-(trifluoromethyl)pyridin-3-yl)methanol], in assay [1], the equilibrium dissociation constant (Kd) is 190 nM. In addition, the IC50 in assay [2] worked out at 870 nM. For the same compound, at human RORγt LBD, the “RORγt reporter Assay, % inhibition @ 6 μM” value came to 73% and the IC50 was 360 nM.

With `Cc1cc(C(O)(c2ccc(C(F)(F)F)nc2)c2cncn2C)cc2c(C#N)c(-c3ccc(F)cc3)c(C#N)nc12` (single isomer, unassigned) [Example 184c, 3-(4-Fluorophenyl)-6-(hydroxy(1-methyl-1H-imidazol-5-yl)(6-(trifluoromethyl)pyridin-3-yl)methyl)-8-methylquinoline-2,4-dicarbonitrile], the Kd in assay [1] was 41 nM. Moreover, half-maximal inhibition in assay [2] (Homo sapiens, CD4+ T, 72 h) (IC50) was put at 700 nM. In addition, at human RORγt LBD, the “RORγt reporter Assay, % inhibition @ 6 μM” value amounted to 97% and inhibition was half-maximal at 260 nM (IC50).

As to `Cn1cncc1C(O)(c1ccc2nc(C(F)(F)F)c(-c3ccccc3)c(C(F)(F)F)c2c1)c1ccccn1` (single isomer, unassigned) [Example 185b, (1-Methyl-1H-imidazol-5-yl)(3-phenyl-2,4-bis(trifluoromethyl)quinolin-6-yl)(pyridin-2-yl)methanol], the Kd in assay [1] was 29 nM. The same compound had a 50% inhibitory concentration (IC50) in assay [2] (Homo sapiens, CD4+ T, 72 h) of 96 nM. Moreover, at human RORγt LBD, the half-maximal inhibitory concentration (IC50) was 130 nM and the inhibition (as a rule, the drop in the measured response relative to a control, in per cent) at 6 µM was 103%.

As for `OC(c1ccccc1)(c1cccnc1)c1ccc2nc(Cl)c(-c3ccccc3Cl)c(Cl)c2c1` (stereo not shown) [Example 6, (2,4-Dichloro-3-(2-chlorophenyl)quinolin-6-yl)(phenyl)(pyridin-3-yl)methanol], the Kd in assay [1] is 74 nM. This compound also displayed an IC50 in assay [2] (Homo sapiens, CD4+ T, 72 h) of about 6000 nM. For the same compound, on human RORγt LBD, 240 nM corresponded to half-maximal inhibition (IC50) and the inhibition at 6 µM is 90%.

As for `COc1ccc(C(O)(c2ccc3nc(Cl)c(-c4ccccc4)c(Cl)c3c2)c2cncn2C)cn1` (stereo not shown) [Example 10, (2,4-Dichloro-3-phenylquinolin-6-yl)(6-methoxypyridin-3-yl)(1-methyl-1H-imidazol-5-yl)methanol•TFA], in assay [1], the dissociation constant Kd was 29 nM. Also, the IC50 in assay [2] (Homo sapiens, CD4+ T, 72 h) was found to be 590 nM. Besides, on human RORγt LBD, the IC50 was 150 nM and the inhibition at 6 µM worked out at 98%.

Consider `Cn1cncc1C(O)(c1ccc(F)nc1)c1ccc2nc(Cl)c(-c3ccccc3)c(Cl)c2c1` (stereo not shown) [Example 12, (2,4-Dichloro-3-phenylquinolin-6-yl)(6-fluoropyridin-3-yl)(1-methyl-1H-imidazol-5-yl)methanol•TFA], for which the Kd in assay [1] was 22 nM. Besides, half-maximal inhibition in assay [2] (Homo sapiens, CD4+ T, 72 h) (IC50) required 330 nM. Besides, on human RORγt LBD, the IC50 is about 100 nM and the inhibition at 6 µM stood at 103%.

As to `Cn1cncc1C(O)(c1ccc(Cl)nc1)c1ccc2nc(Cl)c(-c3ccccc3)c(Cl)c2c1` (stereo not shown) [Example 13], the dissociation constant (Kd) in assay [1] is 15 nM. The 50% inhibitory concentration (IC50) in assay [2] (Homo sapiens, CD4+ T, 72 h) came to 530 nM; at human RORγt LBD, 85 nM. The inhibition at 6 µM at human RORγt LBD worked out at 106%.

Consider `OC(c1ccc(Cl)cc1)(c1cccnc1)c1ccc2nc(Cl)c(-c3ccccc3)c(Cl)c2c1` (stereo not shown) [Example 17, (4-Chlorophenyl)(2,4-dichloro-3-phenylquinolin-6-yl)(pyridin-3-yl)methanol], for which the Kd in assay [1] was 210 nM. Moreover, the IC50 in assay [2] (Homo sapiens, CD4+ T, 72 h) is 940 nM. On human RORγt LBD, the midpoint of inhibition, the IC50, lay at 270 nM and the inhibition at 6 µM was 102%.

For `Cn1cncc1C(O)(c1ccncc1)c1ccc2nc(N3CCOCC3)c(-c3ccccc3)c(Cl)c2c1` (stereo not shown) [Example 20, (4-Chloro-2-morpholin-4-yl-3-phenylquinolin-6-yl)(1-methyl-1H-imidazol-5-yl)pyridin-4-ylmethanol•TFA], the Kd in assay [1] is 130 nM. Besides, the half-inhibitory concentration (IC50) in assay [2] (Homo sapiens, CD4+ T, 72 h) worked out at 520 nM; against human RORγt LBD, 330 nM. Besides, on human RORγt LBD, the inhibition at 6 µM is 104%.

Consider `OC(c1ccncc1)(c1ccncc1)c1ccc2nc(Cl)c(-c3ccccc3)c(Cl)c2c1` [Example 21, (2,4-Dichloro-3-phenylquinolin-6-yl)(dipyridin-4-yl)methanol•TFA], for which, in assay [1], the dissociation constant (Kd) was 120 nM. This compound displayed an IC50 in assay [2] (Homo sapiens, CD4+ T, 72 h) of about 900 nM. Moreover, on human RORγt LBD, the 50% inhibitory concentration (IC50) was found to be 860 nM and the inhibition at 6 µM amounted to 91%.

As to `OC(c1ccc(F)cc1)(c1cccnc1)c1ccc2nc(Cl)c(-c3ccccc3)c(Cl)c2c1` (stereo not shown) [Example 22, (2,4-Dichloro-3-phenylquinolin-6-yl)(4-fluorophenyl)pyridin-3-ylmethanol], the Kd in assay [1] is 75 nM. In addition, in assay [2] (Homo sapiens, CD4+ T, 72 h), half-maximal inhibition (IC50) was put at 440 nM. Moreover, at human RORγt LBD, 220 nM corresponded to half-maximal inhibition (IC50) and the inhibition at 6 µM stood at 104%.

With `OC(c1cccnc1)(c1cccnc1)c1ccc2nc(Cl)c(-c3ccccc3)c(Cl)c2c1` [Example 24, (2,4-Dichloro-3-phenylquinolin-6-yl)(dipyridin-3-yl)methanol•TFA], in assay [1], the Kd is 24 nM. The IC50 in assay [2] (Homo sapiens, CD4+ T, 72 h) is 320 nM; in assay [2], about 200 nM; on human RORγt LBD, 79 nM. For the same compound, the inhibition at 6 µM on human RORγt LBD was 104%.

With `OC(c1cccnc1)(c1cccc(Cl)c1)c1ccc2nc(Cl)c(-c3ccccc3)c(Cl)c2c1` (stereo not shown) [Example 25, (3-Chlorophenyl)(2,4-dichloro-3-phenylquinolin-6-yl)(pyridin-3-yl)methanol], the dissociation constant Kd in assay [1] is 65 nM. This compound yielded an IC50 in assay [2] (Homo sapiens, CD4+ T, 72 h) of 340 nM. In addition, at human RORγt LBD, the IC50 was 94 nM and ~90 nM; the inhibition at 6 µM came to 99%.

Take `OC(c1cccnc1)(c1ccc2nc(Cl)c(-c3ccccc3)c(Cl)c2c1)c1ccccn1` (stereo not shown) [Example 26, (2,4-Dichloro-3-phenylquinolin-6-yl)(pyridin-2-yl)pyridin-3-ylmethanol•TFA]: the Kd in assay [1] was 1300 nM. This compound returned an IC50 in assay [2] (Homo sapiens, CD4+ T, 72 h) of 2800 nM. On human RORγt LBD, the IC50 amounted to 700 nM and the inhibition at 6 µM was 100%.

`Oc1ccc(C(O)(c2cccnc2)c2ccc3nc(Cl)c(-c4ccccc4)c(Cl)c3c2)cc1` (stereo not shown) [Example 29, 4-[(2,4-Dichloro-3-phenylquinolin-6-yl)(hydroxy)pyridin-3-ylmethyl]phenol•HCl]: the equilibrium dissociation constant (Kd) in assay [1] was 180 nM. Moreover, the half-maximal inhibitory concentration (IC50) in assay [2] (Homo sapiens, CD4+ T, 72 h) came to 2800 nM; at human RORγt LBD, 260 nM. Further, the inhibition at 6 µM at human RORγt LBD worked out at 95%.

In the case of `CCc1nc2ccc(C(O)(c3ccc(F)cc3)c3cccnc3)cc2c(Cl)c1-c1ccccc1` (stereo not shown) [Example 30, (4-Chloro-2-ethyl-3-phenylquinolin-6-yl)(4-fluorophenyl)pyridin-3-ylmethanol•TFA], the Kd in assay [1] is 33 nM. This compound also came in with a 50% inhibitory concentration (IC50) in assay [2] (Homo sapiens, CD4+ T, 72 h) of about 1000 nM. Also, at human RORγt LBD, the IC50 is about 300 nM and the inhibition at 6 µM amounted to 93%.

As to `CN(C)c1nc2ccc(C(O)(c3ccc(Cl)cc3)c3cccnc3)cc2c(Cl)c1-c1ccccc1` (stereo not shown) [Example 32, [4-Chloro-2-(dimethylamino)-3-phenylquinolin-6-yl](4-chlorophenyl)pyridin-3-ylmethanol•TFA], the Kd in assay [1] is 330 nM. In assay [2] (Homo sapiens, CD4+ T, 72 h), this compound returned an IC50 of 860 nM. In addition, at human RORγt LBD, the 50% inhibitory concentration (IC50) stood at 94 nM and the inhibition at 6 µM amounted to 97%.
